Values quoted from earlier work as cited in patent publication US20170165232A1, “THREE-PHASE CONTROLLED-RELEASE TABLET COMPRISING MELATONIN AND PROCESS OF PREPARATION” (Ambros Pharma S.R.L., priority 2010, published 2017).

Conditions: in humans

- half-life: about 40 minutes
Structure (SMILES): COc1ccc2[nH]cc(CCNC(C)=O)c2c1 [melatonin, N-acetyl-5-methoxytryptamine]
